Assay results: patent US8012991B2, “Pyridoindolone derivatives substituted in the 3-position by a phenyl, their preparation and their application in therapeutics” (Sanofi-Aventis, priority 2002, dated 2011)

SMILES: COc1ccc2c(c1)c1cc(-c3ccc(Cl)cc3Cl)c(=O)n(C)c1n2C [Compound 21, 3-(2,4-Dichlorophenyl)-6-methoxy-1,9-dimethyl-1,9-dihydro-2H-pyrido[2,3-b]indol-2-one]
- melting point: 130 °C

SMILES: Cc1ccc2c(c1)c1cc(-c3ccc(Cl)cc3Cl)c(=O)n(C)c1n2C [Compound 2, 3-(2,4-Dichlorophenyl)-1,6,9-trimethyl-1,9-dihydro-2H-pyrido[2,3-b]indol-2-one]
- melting point: 170 °C

SMILES: Cc1cc(C)cc(-c2cc3c4cc(C)ccc4n(C)c3n(C)c2=O)c1 [Compound 1, 3-(3,5-Dimethylphenyl)-1,6,9-trimethyl-1,9-dihydro-2H-pyrido[2,3-b]indol-2-one]
- melting point: 210 °C
